# From patent US20220030850A1, “CRYOPRESERVATIVE COMPOSITIONS AND METHODS” (REGENTS OF THE UNIVERSITY OF MINNESOTA, priority 2015, published 2022)
# Columns and labels:
# Jurkat cells = test: 96-well plate freezing, post-thaw scaled raw recovery (calcein-AM/PI); format: cell-based
# Description: The first phase of this study involved using the DE algorithm to develop a three-component cryopreservation solution used at a single cooling rate (1° C./min). Three components (trehalose, glycerol, and ectoine (TGE)) were selected as components of the exemplary freezing medium used for preservation of Jurkat cells, a hematopoietic model cell type, based on pre-screening of multiple non-DMSO components. For this single cooling rate study, the DE algorithm was programmed to output 18 vector solutions per generation with a weight=0.85 and a crossover=1. Jurkat cells cryopreserved in 10% DMSO at a cooling rate of 1° C./min were used as a control.
# Cooling rate influences cell survival, and the preferred cooling rate for a given application can depend, at least in part, on the composition of the freezing medium and the cell type being frozen. […] To assess both cooling rate and the composition of the solution, the DE algorithm was programmed to output 27 vector solutions per generation with weight=0.85 and a crossover=1. Solutions were separated into categories based on their DE algorithm defined cooling rate, and were frozen in batches at a cooling rate of […], 0.5° C./min, 1° C./min, 3° C./min, 5° C./min, or 10° C./min. Results were normalized and scaled raw recovery is reported, allowing results from all cooling rates and all generations to be compared directly. […]
# (§1) After 96 well plates were thawed, calcein-acetoxymethyl (AM)/propidium iodide was added to each well and the wells were covered from light and placed in a 37° C. incubator for 30 minutes to allow the live cells to cleave calcein-AM. The plates were then analyzed for fluorescence on a plate reader. Raw fluorescence values were used to calculate the number of live and dead cells present in each well by correlating to a control curve of unfrozen cells. The live cell recovery was calculated by dividing the number of live cells present in thawed samples (calcein-AM plate reader fluorescence) by the number of live cells seeded pre-freeze (AO/PI counts). […]
# [1] = test system: MSCs (CD73, CD90, CD105, CD45); test: Surface marker characterization by flow cytometry; format: cell-based, human; details: frozen MSCs
# Source text: Cells were suspended to a concentration of 1×10^6 cells/ml in media and stained with a panel of the following antibodies: mouse IgG1 anti-human CD73 (APC-conjugated, BD Biosciences, San Jose, Calif., clone AD2), mouse IgG1 anti-human CD90 (FITC-conjugate, clone 5E10, Molecular Probes, Eugene, Oreg.), mouse IgG1 anti-human CD105 (PE-conjugated, R&D Systems, Inc., Minneapolis, Minn. clone 166707) and mouse IgG1 anti-human CD45 (BV421-conjugated, clone HI30, BD Biosciences, San Jose, Calif.). Cells were incubated with antibodies for 30 minutes at 4° C. Flow cytometry was performed on a flow cytometer (LSR II, BD Biosciences, San Jose, Calif.) at low flow rate with the fine adjust knob five turns from max. At least 15,000 events were recorded for each sample. Cell populations were gated for forward and side scatter compared to unstained MSCs and CD45 expressing Jurkat cells as, respectively, negative and positive controls to establish boundaries for fluorescent signals.
# mesenchymal stem cells = test: 96-well plate freezing, post-thaw scaled raw recovery (calcein-AM/PI); format: cell-based, human; details: 10% DMSO at 1° C./min, control
# Source text: FIG. 2 and FIG. 3 relate to a three-component TGE solution tested with Jurkat cells. […] These components were selected based on pre-screening experiments performed to identify combinations with high potential recovery. The DE algorithm was programmed to output 27 vector solutions per generation with a weight=0.85 and a crossover=1. Experimental testing and result normalization was similar to the methods described above.
# In both screening and DE algorithm experiments, cells were frozen in 96-well plates to limit the number of cells and volumes of reagent necessary, and to increase the number of samples that could be tested at one time. Solutions were made at 2× their final concentration in distilled H2O (diH2O). […]
# as §1
SMILES,"recovery of Jurkat cells (Jurkat cells; 10% DMSO at 1° C./min, control, 96-well) [%]",expression of negative surface marker CD45 [1] [%],"expression of positive surface markers CD73, CD90, CD105 [1] [%]",recovery for MSCs (mesenchymal stem cells) [%],"recovery of Jurkat cells, sugar synergy study (Jurkat cells; 150, 300, 600 mM total sugar, FIG. 8)"
"C[S+](C)[O-] [DMSO, dimethyl sulfoxide]",16,< 1,> 99,21,–
OC[C@H]1O[C@@](CO)(O[C@H]2O[C@H](CO)[C@@H](O)[C@H](O)[C@H]2O)[C@@H](O)[C@@H]1O [Sucrose],–,–,–,–,outperformed monosaccharides
